From patent US20250312362A1, “INHIBITORS OF MsbA AS ANTIBIOTICS, PHARMACEUTICAL COMPOSITIONS, AND USES THEREOF” (Merck Sharp & Dohme LLC, priority 2022, published 2025) come the findings set out here.

The structures appear in SMILES notation. In brackets after ≈: the same amount, converted by molar mass. A value given as a limit tells only on which side of the number the result lay.

The assay concerns various strains of bacteria. As to the kind of experiment: Antimicrobial potency: bacterial growth inhibition by OD600 (Antibacterial assay 1). Format: cell-based. Conditions: read-out: Antibacterial assay 1 (MITC95). How it is done:
The concentrations of compounds required to inhibit the growth of various strains of bacteria were determined in an assay that assessed bacterial growth by measuring optical density at 600 nm (OD600). Test articles were dissolved in 100% DMSO and serially diluted two-fold from their maximal concentration in 100% DMSO. Forty-nine μl of bacterial inoculum (at approx. 2×10^5 cfu/mL in CAMHB) were put into wells of an assay plate. One μl of compound or DMSO was transferred from the source plate to the assay plate. The completed assay plates were then incubated at 35±2 degC. for 18-22 h. Bacterial growth was measured by reading OD600 on a spectrophotometer. Data analysis calculates the lowest concentration of compound which results in ≥95% growth inhibition (minimum inhibitory threshold concentration 95%, MITC95).
Turning to `CCCCc1ccc(S(=O)(=O)Nc2ccc(NC(=O)CCC(=O)Nc3ccc(NS(=O)(=O)c4ccc(CCCC)cc4)c(P(=O)(O)O)c3)cc2C(=O)O)cc1` [Compound 1, 2-((4-butylphenyl)sulfonamido)-5-(4-((4-((4-butylphenyl)sulfonamido)-3-phosphonophenyl)amino)-4-oxobutanamido)benzoic acid], the MIC is 1.56 µM (≈ 1.27 µg/mL).

Consider `CCCCc1ccc(S(=O)(=O)Nc2ccc(NC(=O)CCC(=O)Nc3ccc(NS(=O)(=O)c4ccc(CCCC)cc4)c(C(=O)O)c3)cc2C(=O)O)cc1` [Compound 2, 5,5′-(succinylbis(azanediyl))bis(2-((4-butylphenyl)sulfonamido)benzoic acid)], for which the MIC amounted to 0.0568 µM (≈ 0.0442 µg/mL).

`CCCCc1ccc(S(=O)(=O)Nc2ccc(NC(=O)CCC(=O)Nc3cnc(NS(=O)(=O)c4ccc(CCCC)cc4)c(C(=O)O)c3)cc2C(=O)O)cc1` [Compound 3, 2-((4-butylphenyl)sulfonamido)-5-(4-((4-((4-butylphenyl)sulfonamido)-3-carboxyphenyl)amino)-4-oxobutanamido)nicotinic acid]: the MIC came out at 0.621 µM (≈ 0.484 µg/mL).

Regarding `O=C(CCCOc1ccc(NS(=O)(=O)c2ccc(-c3ccc(Cl)cc3)s2)c(C(=O)O)c1)Nc1ccc(NS(=O)(=O)c2ccc(-c3ccc(Cl)cc3)s2)c(C(=O)O)c1` [Compound 4, 5-(4-(3-Carboxy-4-((5-(4-chlorophenyl)thiophene)-2-sulfonamido)phenoxy)-butanamido)-2-((5-(4-chlorophenyl)thiophene)-2-sulfonamido)benzoic acid], the MIC stood at 0.0122 µM (≈ 0.0108 µg/mL). The value for `O=C(CCCOc1ccc(NS(=O)(=O)c2cnn(-c3ccc(Cl)cc3)c2)c(C(=O)O)c1)Nc1ccc(NS(=O)(=O)c2ccc(-c3cc(Cl)cc(Cl)c3)cc2)c(C(=O)O)c1` [Compound 5] was 0.0122 µM (≈ 0.011 µg/mL); that for `O=C(CCCOc1ccc(NS(=O)(=O)c2cnn(-c3ccc(Cl)cc3)c2)c(C(=O)O)c1)Nc1ccc(NS(=O)(=O)c2ccc(-c3ccc(F)cc3)cc2)c(C(=O)O)c1` [Compound 6] was 0.0173 µM (≈ 0.0147 µg/mL); that for `Cc1c(S(=O)(=O)Nc2ccc(NC(=O)CCCOc3ccc(NS(=O)(=O)c4cnn(-c5ccc(Cl)cc5)c4)c(C(=O)O)c3)cc2C(=O)O)sc2ccc(Cl)cc12` [Compound 7] was 0.0122 µM (≈ 0.0105 µg/mL). The value for `CCCCc1ccc(S(=O)(=O)Nc2ccc(NC(=O)CCCOc3ccc(NS(=O)(=O)c4sc(-c5ccccc5)nc4C)c(C(=O)O)c3)cc2C(=O)O)cc1` [Compound 8] was 0.0173 µM (≈ 0.014 µg/mL); that for `O=C(CCCOc1ccc(NS(=O)(=O)c2ccc(Oc3ccc(Cl)cc3)nc2)c(C(=O)O)c1)Nc1ccc(NS(=O)(=O)c2ccc(Oc3ccc(Cl)cc3)nc2)c(C(=O)O)c1` [Compound 9] was 0.0122 µM (≈ 0.0111 µg/mL).

Take `CCCCc1ccc(S(=O)(=O)Nc2ccc(OCCCC(=O)Nc3ccc(NS(=O)(=O)c4ccc(CCCC)cc4)c(C(=O)O)n3)cc2C(=O)O)cc1` [Compound 10]: the MIC worked out at 0.985 µM (≈ 0.755 µg/mL).

On to `O=C(CCCOc1ccc(NS(=O)(=O)c2cnn(-c3ccc(Cl)cc3)c2)c(C(=O)O)c1)Nc1ccc(NC(=O)Cc2ccc(-c3ccc(F)cc3)cc2)c(C(=O)O)c1` [Compound 11], for which the MIC worked out at 0.0489 µM (≈ 0.0404 µg/mL).

With `O=C(CCCOc1ccc(NS(=O)(=O)c2cnn(-c3ccc(Cl)cc3)c2)c(C(=O)O)c1)Nc1ccc(NC(=O)Cc2cccc(-c3ccc(F)cc3)c2)c(C(=O)O)c1` [Compound 12], the MIC was 0.0489 µM (≈ 0.0404 µg/mL).

With `O=C(COc1ccc(NS(=O)(=O)c2cnn(-c3ccc(Cl)cc3)c2)c(C(O)O)c1)Nc1ccc(NC(=O)C(=O)NCc2ccc(Cl)cc2)c(C(=O)O)c1` [Compound 13], the MIC was 0.0978 µM (≈ 0.0766 µg/mL).

For the compound `O=C(Nc1ccc(NS(=O)(=O)c2cnn(-c3ccc(F)cc3)c2)c(C(=O)O)c1)Nc1ccc(NS(=O)(=O)c2cnn(-c3ccc(F)cc3)c2)c(C(=O)O)c1` [Compound 14, 5-(3-(3-carboxy-4-((1-(4-fluorophenyl)-1H-pyrazole)-4-sulfonamido)phenyl)ureido)-2-((1-(4-fluorophenyl)-1H-pyrazole)-4-sulfonamido)benzoic acid], the MIC worked out at 3.13 µM (≈ 2.44 µg/mL). The value for `CCCCc1ccc(S(=O)(=O)Nc2ccc(NC(=O)Nc3ccc(NS(=O)(=O)c4ccc(CCCC)cc4)c(C(=O)O)c3)cc2C(=O)O)cc1` [Compound 15] was 2.21 µM (≈ 1.6 µg/mL). The value for `O=C(Nc1ccc(NC(=O)C(=O)NCc2ccc(Cl)cc2)c(C(=O)O)c1)Nc1ccc(NC(=O)C(=O)NCc2ccc(Cl)cc2)c(C(=O)O)c1` [Compound 17, 5,5′-(carbonylbis(azanediyl))bis(2-(2-((4-chlorobenzyl)amino)-2-oxoacetamido)benzoic acid)] was 0.0245 µM (≈ 0.0177 µg/mL); that for `O=C(Nc1ccc(NC(=O)C(=O)NCCc2ccc(Cl)cc2)c(C(=O)O)c1)Nc1ccc(NC(=O)C(=O)NCCc2ccc(Cl)cc2)c(C(=O)O)c1` [Compound 19] was greater than 3.13 µM; that for `CCCCc1ccc(S(=O)(=O)Nc2ccc(NC(=O)CCNC(=O)c3ccc(NS(=O)(=O)c4ccc(CCCC)cc4)c(C(=O)O)c3)cc2C(=O)O)cc1` [Compound 20, 2-((4-butylphenyl)sulfonamido)-5-(3-(4-((4-butylphenyl)sulfonamido)-3-carboxy-benzamido)propanamido)benzoic acid] was 0.112 µM (≈ 0.0872 µg/mL). Next, `CCCCc1ccc(S(=O)(=O)Nc2ccc(NC(=O)CCNC(=O)c3ccc(NS(=O)(=O)c4ccc(CCOC)cc4)c(C(O)O)c3)cc2C(=O)O)cc1` [Compound 21]: 0.782 µM (≈ 0.612 µg/mL).

Regarding `CCCCc1ccc(S(=O)(=O)Nc2ccc(NC(=O)C[C@H](C)NC(=O)c3ccc(NS(=O)(=O)c4ccc(CCCC)cc4)c(C(O)O)c3)cc2C(=O)O)cc1` [Compound 22], the MIC came out at 0.782 µM (≈ 0.622 µg/mL). The value for `O=C(CCNC(=O)c1ccc(NS(=O)(=O)c2cnn(-c3ccc(Cl)cc3)c2)c(C(O)O)c1)Nc1ccc(NS(=O)(=O)c2cnn(-c3ccc(Cl)cc3)c2)c(C(=O)O)c1` [Compound 23] was 0.098 µM (≈ 0.0852 µg/mL).
